Test results reported in patent US7592326B2, “Method for stimulating the immune, inflammatory or neuroprotective response” (priority 2004, dated 2009).

Assays:
[1] = system: C. albicans strain SC5314; assay: Systemic C. albicans infection in mice (proposed); assay type: in vivo, Candida albicans; settings: A/J and C57BL/6J mice, 3×10^5 blastospores i.v.
Method: To show the efficacy of c-di-GMP in inhibiting C. albicans infection, 8- to 12-week-old A/J and C57BL/6J mice are infected with C. albicans strain SC5314. The blastospores are washed twice in phosphate-buffered saline (PBS) and resuspended in PBS at the required density. For experimental infections, A/J and C57BL/6J mice are inoculated via the tail vein with 200 μl of a suspension containing 3×10^5 C. albicans blastospores in PBS. One group of mice will be pretreated with c-di-GMP (intranasally, i.p., i.m., s.q.). Mice are to be closely monitored for clinical signs of disease, such as lethargy, loss of appetite, hunched back, and ruffled fur.
The levels of TNF-α and IL-6 in tissue extracts are determined using “two-site sandwich” assays with commercially available enzyme-linked immunosorbent assay (ELISA) kits (BD Biosciences). Tissue extracts are prepared by homogenization in lysis buffer (20 mM Tris [pH 7.5], 0.3 M NaCl, 2% sodium deoxycholate, 2% Triton X-100, protease inhibitor cocktail [Roche Diagnostics]). Additional determinations of the levels of 32 cytokines and chemokines are carried out by using cardiac tissue extracts and RayBio mouse cytokine array II membranes (RayBiotech Inc., Norcross, Ga.). […] All values are normalized to the protein content and determined using the Bradford reagent.

[2] = system: p38 MAPK; assay: Western blot signaling in human DCs: p38 MAPK; assay type: cell-based; settings: 5 and 20 min treatment, FIG. 13A
Method: Human PBMC were isolated by Ficoll density gradient centrifugation from leukopacks supplied by the Department of Transfusion Medicine (Clinical Center, National Institute of Health, Bethesda, Md.). Monocytes were purified (>95%) from human PBMC with MACS CD14 monocyte isolation kit (Miltenyi Biotech Inc., Auburn, Calif.) according to the manufacturer's instruction. DCs were generated as described previously (Yang et al., 2001). In brief, DCs were generated by incubating purified monocytes at 2×10^5/ml in RPMI 1640 containing 10% FBS, 2 mM glutamine, 25 mM HEPES, 100 U/ml penicillin, 100 ug/ml streptomycin, 50 ng/ml recombinant human GM-CSF (PeproTech, Rocky Hill, N.J.), and 50 ng/ml recombinant human IL-4 (PeproTech) at 37° C. in a CO2 (5%) incubator for 7 days. On day 3 and 5 of the incubation, half of the culture medium was replaced with pre-warmed (37° C.) fresh GM-CSF- and IL-4-containing medium. On day 7, DCs were collected, washed three times with PBS, and serum-starved for 8 hours by incubating in serum-free RPMI-1640 containing GM-CSF and IL-4 (2×10^5/ml) at 37° C. in a CO2 (5%) incubator. Subsequently, DCs (2×10^6/sample) were incubated at 37° C. in the absence or presence of c-di-GMP or GMP (Sigma, St. Louis, Mo.) at concentrations specified for 5 or 30 minutes. […]

[3] = system: C. albicans; assay: Candidiasis of oral mucosal surfaces and intestinal tract in mice (proposed); assay type: in vivo, Candida albicans; settings: C. albicans in drinking water
Description: Dissemination to livers occurs and is 100% on days 5 to 15. The median kidney or liver CFU were 2 or 3 log10 CFU, respectively, on day 15; despite this, mortality was low through 21 days of infection.

Nc1nc(=O)c2ncn([C@@H]3OC4COP(=O)(O)O[C@H]5[C@@H](O)[C@H](n6cnc7c(=O)nc(N)[nH]c76)O[C@@H]5COP(=O)(O)OC4C3O)c2[nH]1 (stereo partly drawn) [c-di-GMP, Bis(3′→5′)-cyclic diguanylic acid]
clinical outcome [1]: less mortality | activation of p38 MAPK (phospho-p38) [2]: activated | mucosal infection and dissemination compared to untreated controls [3]: reduce mucosal infection
